{"source": "patent US20240082341A1", "about": "“PEPTIDE FOR USE IN THE TREATMENT OR PREVENTION OF COVID-19” (Instytut Biochemii I Biofizyki Polskiej Akademii Nauk, priority 2020, published 2024)", "biological_target": "RBD domain of the S1 subunit of viral S glycoprotein (Severe acute respiratory syndrome coronavirus 2, UniProt P0DTC2)", "assay": "Binding of the peptides to the RBD domain of viral S glycoprotein (microscale thermophoresis, MST)", "parameters": "species or system SARS-CoV-2", "conditions": "for binding strength compared with the native peptide (1d): RBD domain, comparison with peptide 1d", "note": "Ends that are not written are not given here.", "data": [{"compound": "CSCC[C@H](N)C(=O)N[C@@H](Cc1ccc(O)cc1)C(=O)NCC(=O)N[C@@H](CC(N)=O)C(=O)N[C@@H](Cc1c[nH]cn1)C(=O)N[C@@H](CCC(=O)O)C(=O)O", "note": "[Peptide J3.2, MYGNHE]", "values": [{"measurement": "binding strength compared with the native peptide (1d)", "result": "significantly higher"}]}, {"compound": "NC(=O)C[C@H](NC(=O)CNC(=O)[C@H](Cc1ccc(O)cc1)NC(=O)[C@@H](N)CC(=O)O)C(=O)N[C@@H](Cc1c[nH]cn1)C(=O)N[C@@H](CCC(=O)O)C(=O)O", "note": "[Peptide 2d, DYGNHE]", "values": [{"measurement": "binding strength compared with the native peptide (1d)", "result": "significantly higher"}]}, {"compound": "MYGNYE [Peptide J3.4, MYGNYE]", "values": [{"measurement": "Kd", "setting": "peptide-RBD complex, 25° C., cell unit μM, read-out: KD (nM) Tmeasurement 25° C.", "result": "> 10", "unit": "µM"}]}]}
